Source: article PMC5603865, “Synthesis, In-Vitro Activity and Metabolic Properties of Quinocetone and Structurally Similar Compounds” (Iranian Journal of Pharmaceutical Research : IJPR, 2017)
In brackets after ≈: the same amount, converted by molar mass. Like-named read-outs stand apart in the source and are kept apart here.

Tests used:
[1] = system: HepG2, Vero, L-02 and Chang liver cell lines; design: method as in PMID 19061932, PMID 22840332; conditions: in-vitro, ref [7],[11]; cited from earlier work
[2] = system: Gram-positive and Gram-negative bacteria; experiment: Antibacterial activity class based on the MIC results; type: cell-based
Protocol: (§1) The preliminary antibacterial activities were obtained for selected compounds against various bacteria, namely: Staphyloccocus aureus ATCC25923 (Gram-positive bacteria), Clostridium perfringen CVCC52,8604 (anaerobes bacteria), Salmonella pullorum (Gram-negative bacteria), Escherichia coli ATCC25922 (Gram negative bacteria) and Aeromonas hydrophila (Gram-negative bacteria) were used in the study. Each strain was cultured in appropriate broth medium. Clostridium perfringen was incubated in an anaerobic chamber. The minimum inhibitory concentration (MIC) for each test compound was estimated using the broth dilution method. The MIC’s was determined for each strain/compound pairs that presented antimicrobial activity. The method was modified from Mohapatra›s methods ([14], [15]). Cell suspensions were prepared in 2 mL of liquid medium with concentrations of various tests of compounds in 15 mL culture tubes by inoculation with 100 μL of 10^6 cfu/mL from each stock. The cultures were incubated at 28 °C or 37 °C for 24 h. Tubes showing no visible turbidity represented the MIC, and subsequently, were inoculated on the right side of the 9cm sterile nutrient agar plates without various test compounds and incubated for 24 h (Clostridium perfringen was incubated in an anaerobic chamber.). The least concentration, at which no growth was observed, represented the minimum bactericidal concentration (MBC) ([16]).
In this study, activity of quinoxaline-1, 4-dioxides and their deoxygenations was tested against selected Gram-negative bacteria (Escherichia coli, Salmonella pullorum and Aeromonas hydrophila), Gram-positive bacteria (Staphyloccocus aureus and Clostridium perfringen). The in-vitro antibacterial activity was based on the MIC results: Strong antibacterial activity, if MIC is less than 50 μg/mL; Moderate, if MIC is in between 50 and 250 μg/mL; No activity, if MIC is more than 500 μg/mL.

[3] = system: Clostridium perfringen CVCC52,8604; experiment: In-vitro antibacterial activity, MIC by broth dilution (anaerobic chamber); type: cell-based; conditions: Clostridium, 24 h
Protocol: (§2) All test compounds were dissolved in dimethyl sulfoxide (DMSO, Sigma, USA) and then diluted in Dulbecco’s modified Eagle’s medium (DMEM, Gibco, USA) at desired concentrations for cell proliferation analyses or diluted in nutrient broth medium for antimicrobial susceptibility testing respectively. The final concentration of DMSO in the DMEM culture medium was under 0.1% (v:v).
as §1

HepG2 cells [4] = experiment: Identification of metabolic pathways in HepG2 cells by LC-MS/MS; type: in vitro ADME, human; conditions: HepG2 cells incubated for 24 h
Protocol: For recognition of the metabolic characteristics of quinocetone (3a), deoxyquinocetone (5a), olaquindox, 3-methyl-2-(3-fura-2-propenoyl)-quinoxaline -1,4-dioxide 6, and 3-methyl -2-quinoxaline-2-carboxylate-1,4-dioxide 8, HepG2 cells were seeded at 6× 10^4 cells/ml density in 24-well plates. After 24 h incubation, the medium was replaced with fresh medium containing various concentrations ([…]) of test compounds. After 24 h incubation, the medium was collected and extracted with ethyl acetate then centrifuged at […] for 20min at 4 °C. The organic supernatant was evaporated under nitrogen atmosphere at 40 °C, the residue was dissolved in 200μL acetonitrile. The aliquot was filtered by a 0.22 μM membrane then analyzed. The blank is conducted in the absence of pharmaceuticals.
All experiments were performed with a Waters Alliance 2695 LC system (Waters) and a quattro micro API quadruple mass spectrometer (Micromass, Manchester, UK) equipped with an electro-spray ion source (ESI).
LC analysis was carried out on an XTerra C18 HPLC column (2.1 mm×100 mm, 3.5 μM) (Waters, Milford, MA, USA) equipped with a guard column (XTerra C18 2.1 mm×100 mm, 3.5μM) (Waters, Milford, MA, USA). […]
The MS instrument was used for analysis operating in a positive ion mode. […] The spectra was recorded in the range m/z 50~500 for full scan MS analysis. […]

[5] = system: normal human Chang liver cells; experiment: In-vitro cytotoxicity, MTT cell proliferation assay; type: cell-based; conditions: 24 h incubation, concentration reducing viable cells by 50%
Protocol: as §2
(§3) HepG2 and normal human Chang liver cells were obtained from the Institute of Biochemistry and Cell Biology, Shanghai Institutes for Biological Sciences, Chinese Academy of Sciences (Shanghai, China). HepG2 and normal human Chang liver cells were cultured at 37˚Cwith 5% CO2 in DMEM supplemented with 2% L-glutamine, 10% fetal bovine serum (Gibco, USA), 100 U/mL penicillin and 100 […] (Gibco, USA).
(§4) The methodology for evaluating the cytotoxicity inhibitory activity of various test compounds towards cell proliferation has been described previously ([11], [17]). Cell proliferation inhibitory analyses were carried out using the 3-(4,5-dimethylthiazole-2-yl)-2,5-diphenyl tetrazolium bromide (MTT, Sigma, USA) assay. Briefly, cancers HepG2 and normal human Chang liver cells were harvested and resuspended in fresh growth medium. A 100 μL cell suspension (5 × 10^4 cells/mL) was aliquoted into each well of a 96-well culture plate. After 12 h incubation, the medium was replaced with fresh medium containing various concentrations of test compounds. The cells were then incubated for another 24 h. At the end of exposure, 10 μL of MTT solution (5 mg/mL) was added, and the cells were incubated for 4 h at 37 °C. The cells were treated with 100 μL DMSO, and absorbance was recorded at 570 nm using a microplate ELISA reader (ELX800, Bio-Tek, USA). All experiments were performed at least thrice, and data were presented as the mean of sixplicate wells ± standard deviation (SD). Cell inhibition was calculated as follows:
(§5) (OD of control group − OD of experimental group) / (OD of control group − OD of blank group) ×100%. The IC50 value for a compound was calculated using SPSS.

HepG2 cells [6] = experiment: as above; type: cell-based, human; conditions: 24 h incubation, concentration reducing viable cells by 50%
Protocol: as §2, §3, §4, §5

[7] = system: Staphyloccocus aureus ATCC25923; experiment: In-vitro antibacterial activity, MIC by broth dilution; type: cell-based; conditions: broth dilution, 24 h; read-out: MIC values Staphyloccocus aureus ATCC25923
Protocol: as §2, §1

[8] = system: Escherichia coli ATCC25922; experiment: as above; type: cell-based; conditions: Escherichia coli, read-out: MIC values Escherichia coli ATCC25922
Protocol: as §2, §1

Aeromonas hydrophila [9] = experiment: as above; type: cell-based; conditions: Aeromonas hydrophila, 24 h, read-out: MIC values Aeromonas hydrophila
Protocol: as §2, §1

Salmonella pullorum = experiment: as above; type: cell-based; conditions: Salmonella enterica, PULLORUM, 24 h
Protocol: as §2, §1

Aeromonas hydrophila [10] = experiment: Minimum bactericidal concentration (MBC), subculture on nutrient agar; type: cell-based; conditions: least concentration with no growth on agar plates, 24 h
Protocol: as §1, with “The least concentration, at which no growth was observed, represented the minimum bactericidal concentration (MBC) ([16]).” left out

[11] = Homo sapiens, Chang liver, 24 h
[12] = ATCC25922, broth dilution, 24 h

Structure (SMILES) | growth inhibitory effects [1] | antibacterial activity against Gram-positive and Gram-negative bacteria [2] | MIC [3] [µg/mL] | categories of metabolites in HepG2 cells (HepG2 cells [4]) | IC50 [5] [µM] | IC50 [5, 11] [µM] | IC50 (HepG2 cells [6]) [µM] | IC50 (HepG2 cells [6]; Homo sapiens, HepG2, 24 h) [µM] | MIC [7] [µg/mL] | MIC [8, 12] [µg/mL] | MIC (Aeromonas hydrophila [9]; broth dilution) [µg/mL] | MIC (Salmonella pullorum) [µg/mL] | MIC ([8]; ATCC25922, 24 h) [µg/mL] | melting point [°C] | MIC (Aeromonas hydrophila [9]) [µg/mL] | MBC (Aeromonas hydrophila [10]) [µg/mL]
Cc1c(C(=O)C=Cc2ccccc2)[n+]([O-])c2ccccc2[n+]1[O-] [Compound 3a, 3-Methyl-2-(3-phenyl-2-propenoyl)-quinoxaline-1,4-dioxide, reference compound] | significant growth inhibitory effects | strong or moderate activity | 196 (≈ 639 µM) | reduction, hydroxylation, and a combination of reduction and hydroxylation | 63.3 ± 5.55 | 63 | 49.3 ± 1.94 | 49 | 24.5 (≈ 79.9 µM) | 97.9 (≈ 320 µM) | 49 (≈ 160 µM) | 49 (≈ 160 µM) |  |  |  | 
CCOC(=O)c1c(C)[n+]([O-])c2ccccc2[n+]1[O-] [Compound 8, 3-methyl-2-quinoxaline-2-carboxylate-1,4-dioxide] |  | strong or moderate activity | 4.96 (≈ 20 µM) |  |  | 217 ± 3.52 |  | 217 ± 3.48 | 39.7 (≈ 160 µM) |  | 39.7 (≈ 160 µM) | 19.8 (≈ 79.9 µM) | 4.96 (≈ 20 µM) |  |  | 
CCOC(=O)c1nc2ccccc2nc1C [Compound 9, 3-methyl-2-quinoxaline-2-carboxylate] |  | little or no activity | > 500 |  |  | 610 ± 18.4 |  | 547 ± 7.71 | > 500 | > 500 | 138 (≈ 639 µM) | > 500 |  |  |  | 
Cc1c[n+]([O-])c2ccccc2[n+]1[O-] [Compound 11, 3-methyl-quinoxaline-1,4-dioxide] |  | little or no activity | 225 (≈ 1280 µM) |  |  | 452 ± 6.86 |  | 465 ± 28.8 | 451 (≈ 2560 µM) | 56.3 (≈ 320 µM) |  | 451 (≈ 2560 µM) |  | 173.5 to 176.8 | 225 (≈ 1280 µM) | 
Cc1c(C(=O)NCCO)[n+]([O-])c2ccccc2[n+]1[O-] [olaquindox, n-(2-hydroxyethyl)-3-methyl-2-quinoxalinecarboxamide 1,4-dioxide, reference compound] | much lower than quinocetone | strong or moderate activity | 67.3 (≈ 256 µM) |  |  | 815 ± 31.2 |  | 893 ± 14.7 | 42.1 (≈ 160 µM) | 21 (≈ 79.9 µM) | 21 (≈ 79.9 µM) | 84.2 (≈ 320 µM) |  |  |  | 84.2 (≈ 320 µM)
